# B1: FLAG-RIN3 (natural protein, UniProt Q8TB24 1-985, looked up)
# chain: MIRHAGAPARGDPTGPVPVVGKGEEEEEEDGMRLCLPANPKNCLPHRRGISILEKLIKTCPVWLQLSLGQAEVARILHRVVAGMFLVRRDSSSKQLVLCVHFPSLNESSAEVLEYTIKEEKSILYLEGSALVFEDIFRLIAFYCVSRDLLPFTLRLPQAILEASSFTDLETIANLGLGFWDSSLNPPQERGKPAEPPRDRAPGFPLVSSLRPTAHDANCACEIELSVGNDRLWFVNPIFIEDCSSALPTDQPPLGNCPARPLPPTSDATSPTSRWAPRRPPPPPPVLPLQPCSPAQPPVLPALAPAPACPLPTSPPVPAPHVTPHAPGPPDHPNQPPMMTCERLPCPTAGLGPLREEAMKPGAASSPLQQVPAPPLPAKKNLPTAPPRRRVSERVSLEDQSPGMAAEGDQLSLPPQGTSDGPEDTPRESTEQGQDTEVKASDPHSMPELPRTAKQPPVPPPRKKRISRQLASTLPAPLENAELCTQAMALETPTPGPPREGQSPASQAGTQHPPAQATAHSQSSPEFKGSLASLSDSLGVSVMATDQDSYSTSSTEEELEQFSSPSVKKKPSMILGKARHRLSFASFSSMFHAFLSNNRKLYKKVVELAQDKGSYFGSLVQDYKVYSLEMMARQTSSTEMLQEIRTMMTQLKSYLLQSTELKALVDPALHSEEELEAIVESALYKCVLKPLKEAINSCLHQIHSKDGSLQQLKENQLVILATTTTDLGVTTSVPEVPMMEKILQKFTSMHKAYSPEKKISILLKTCKLIYDSMALGNPGKPYGADDFLPVLMYVLARSNLTEMLLNVEYMMELMDPALQLGEGSYYLTTTYGALEHIKSYDKITVTRQLSVEVQDSIHRWERRRTLNKARASRSSVQDFICVSYLEPEQQARTLASRADTQAQALCAQCAEKFAVERPQAHRLFVLVDGRCFQLADDALPHCIKGYLLRSEPKRDFHFVYRPLDGGGGGGGGSPPCLVVREPNFL
# notes: this molecule is used for it; source: HEK293T, transfected, in lysate
# Assays:
# [1] = molecular target: T1, Rab22 (Homo sapiens, UniProt Q9UL26); assay: […]GTPgammaS filter binding time course; set-up: gene RAB22A; GST fusion from E. coli (in vitro); myc-tagged in HEK293T (cell assay); settings: 1 µM [35S]GTPgammaS, 30 °C; with or without FLAG-RINL or Rabex-5; labelled compound
# T1 sequence (Q9UL26 1-194): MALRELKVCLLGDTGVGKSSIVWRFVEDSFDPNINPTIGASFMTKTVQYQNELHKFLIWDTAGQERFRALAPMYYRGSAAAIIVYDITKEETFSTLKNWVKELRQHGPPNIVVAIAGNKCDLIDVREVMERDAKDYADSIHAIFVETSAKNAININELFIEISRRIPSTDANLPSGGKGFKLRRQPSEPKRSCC
# [2] = molecular target: T2, Rab31 (Homo sapiens, UniProt Q13636); assay: […]GTPgammaS filter binding time course; set-up: GST fusion from E. coli (in vitro); myc-tagged in HEK293T (cell assay); settings: 1 µM [35S]GTPgammaS, 30 °C; with or without FLAG-RINL or Rabex-5; labelled compound
# T2 sequence (Q13636 1-195): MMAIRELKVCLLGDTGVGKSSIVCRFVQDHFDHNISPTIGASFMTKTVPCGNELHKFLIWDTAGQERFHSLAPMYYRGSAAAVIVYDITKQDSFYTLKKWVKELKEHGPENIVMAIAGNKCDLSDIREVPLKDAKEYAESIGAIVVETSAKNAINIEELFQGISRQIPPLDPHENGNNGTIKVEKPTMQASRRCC
# [3] = molecular target: T3, Rab21 (Homo sapiens, UniProt Q9UL25); assay: […]GTPgammaS filter binding time course; set-up: GST fusion from E. coli (in vitro); myc-tagged in HEK293T (cell assay); settings: 1 µM [35S]GTPgammaS, 30 °C; with or without FLAG-RINL or Rabex-5; labelled compound
# T3 sequence (Q9UL25 1-225 limits assumed): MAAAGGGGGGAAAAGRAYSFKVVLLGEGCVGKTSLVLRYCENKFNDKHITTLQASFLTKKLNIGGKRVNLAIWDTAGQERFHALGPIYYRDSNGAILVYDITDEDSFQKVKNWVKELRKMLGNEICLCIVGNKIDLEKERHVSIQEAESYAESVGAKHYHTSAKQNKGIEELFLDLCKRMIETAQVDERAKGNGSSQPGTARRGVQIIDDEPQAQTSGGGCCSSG
# [4] = molecular target: T3, Rab21; assay: […] metabolic labelling, anti-myc immunoprecipitation, TLC of bound nucleotides; format: cell-based; set-up: myc-tagged in HEK293T (cell assay); settings: HEK293T cells, 4 h 32Pi; mock or GEF co-expression; labelled compound
# [5] = molecular target: T4, Rab5b (Homo sapiens, UniProt P61020); assay: as above; format: cell-based; settings: HEK293T cells, 4 h 32Pi; mock or GEF co-expression; labelled compound
# T4 construct: GST fusion from E. coli (in vitro); myc-tagged in HEK293T (cell assay)
# T4 sequence (P61020 1-215): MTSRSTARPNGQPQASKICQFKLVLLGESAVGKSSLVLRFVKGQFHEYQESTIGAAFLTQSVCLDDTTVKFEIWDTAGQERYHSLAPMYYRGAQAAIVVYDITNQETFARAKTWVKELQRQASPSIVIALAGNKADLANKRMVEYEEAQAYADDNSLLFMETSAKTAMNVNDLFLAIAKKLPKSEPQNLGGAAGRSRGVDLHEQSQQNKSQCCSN
# [6] = molecular target: T5, Rab3a (Homo sapiens, UniProt P20336); assay: as above; format: cell-based; settings: HEK293T cells, mock or RINL co-expression, labelled compound
# T5 construct: myc-tagged, expressed in HEK293T, immunoprecipitated
# T5 sequence (P20336 1-220): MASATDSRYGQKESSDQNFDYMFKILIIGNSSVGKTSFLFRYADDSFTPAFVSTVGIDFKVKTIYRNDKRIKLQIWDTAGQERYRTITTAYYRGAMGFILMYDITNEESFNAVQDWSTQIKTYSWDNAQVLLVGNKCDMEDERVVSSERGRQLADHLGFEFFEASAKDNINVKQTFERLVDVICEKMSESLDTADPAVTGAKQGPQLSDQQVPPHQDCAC
# [7] = molecular target: T1, Rab22; assay: as above; format: cell-based; set-up: gene RAB22A; myc-tagged in HEK293T (cell assay); settings: HEK293T cells, 4 h 32Pi; mock or GEF co-expression; labelled compound
# [8] = molecular target: T2, Rab31; assay: as above; format: cell-based; set-up: myc-tagged in HEK293T (cell assay); settings: HEK293T cells, 4 h 32Pi; mock or GEF co-expression; labelled compound
# [9] = molecular target: T6, Rab11a (Homo sapiens, UniProt P62491); assay: as above; format: cell-based; settings: HEK293T cells, mock or RINL co-expression, labelled compound
# T6 construct: myc-tagged, expressed in HEK293T, immunoprecipitated
# T6 sequence (P62491 2-213): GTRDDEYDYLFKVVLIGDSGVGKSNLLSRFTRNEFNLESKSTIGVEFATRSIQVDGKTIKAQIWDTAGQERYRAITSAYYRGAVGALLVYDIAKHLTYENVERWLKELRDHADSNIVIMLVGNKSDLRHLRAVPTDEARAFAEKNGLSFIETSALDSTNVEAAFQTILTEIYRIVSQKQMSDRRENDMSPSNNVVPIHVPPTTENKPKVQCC
# [10] = molecular target: T7, Rab7a (Homo sapiens, UniProt P51149); assay: as above; format: cell-based; settings: HEK293T cells, mock or RINL co-expression, labelled compound
# T7 construct: myc-tagged, expressed in HEK293T, immunoprecipitated
# T7 sequence (P51149 2-207): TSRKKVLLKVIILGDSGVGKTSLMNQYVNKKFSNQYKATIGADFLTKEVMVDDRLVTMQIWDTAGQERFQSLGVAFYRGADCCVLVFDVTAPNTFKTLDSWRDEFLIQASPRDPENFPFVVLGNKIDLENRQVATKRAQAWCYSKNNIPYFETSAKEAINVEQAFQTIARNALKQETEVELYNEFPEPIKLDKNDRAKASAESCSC
# [11] = molecular target: the molecule itself; assay: not stated; data not shown; tetramers composed of anti-parallel linkages of two parallel dimers
Molecule,[35S]GTPgammaS filter binding time course [1],[35S]GTPgammaS filter binding time course [2],[35S]GTPgammaS filter binding time course [3],"32Pi metabolic labelling, anti-myc immunoprecipitation, TLC of bound nucleotides [4]","32Pi metabolic labelling, anti-myc immunoprecipitation, TLC of bound nucleotides [5]","32Pi metabolic labelling, anti-myc immunoprecipitation, TLC of bound nucleotides [6]","32Pi metabolic labelling, anti-myc immunoprecipitation, TLC of bound nucleotides [7]","32Pi metabolic labelling, anti-myc immunoprecipitation, TLC of bound nucleotides [8]","32Pi metabolic labelling, anti-myc immunoprecipitation, TLC of bound nucleotides [9]","32Pi metabolic labelling, anti-myc immunoprecipitation, TLC of bound nucleotides [10]",stoichiometry N [11]
Nc1nc2c(ncn2[C@@H]2O[C@H](COP(=O)(O)OP(=O)(O)OP(O)(O)=S)[C@@H](O)[C@H]2O)c(=O)[nH]1 [GTPgammaS],RINL accelerated GTPgammaS binding to Rab22 and Rab31,RINL accelerated GTPgammaS binding to Rab22 and Rab31,"Rabex-5 strongly, as opposed to RINL, accelerated GTPgammaS binding to Rab21",–,–,–,–,–,–,–,–
Nc1nc2c(ncn2[C@@H]2O[C@H](COP(=O)(O)OP(=O)(O)OP(=O)(O)O)[C@@H](O)[C@H]2O)c(=O)[nH]1 [GTP],–,–,–,"RINL significantly increased GTP-Rab21, GTP-Rab22, and GTP-Rab31 formation",Rab5b was present in a GTP-bound form in mock-transfected cells,The percentages (%) of each GTP-bound Rab member in the metabolically radiolabeled cells are shown,"RINL significantly increased GTP-Rab21, GTP-Rab22, and GTP-Rab31 formation","RINL significantly increased GTP-Rab21, GTP-Rab22, and GTP-Rab31 formation",–,–,–
Nc1nc2c(ncn2[C@@H]2O[C@H](COP(=O)(O)OP(=O)(O)O)[C@@H](O)[C@H]2O)c(=O)[nH]1 [GDP],–,–,–,The radioactivity of GTP and GDP was quantified,The radioactivity of GTP and GDP was quantified,The radioactivity of GTP and GDP was quantified,The radioactivity of GTP and GDP was quantified,The radioactivity of GTP and GDP was quantified,The radioactivity of GTP and GDP was quantified,The radioactivity of GTP and GDP was quantified,–
B1,–,–,–,–,–,–,–,–,–,–,4

# — paper PMC3264577, “RINL, Guanine Nucleotide Exchange Factor Rab5-Subfamily, Is Involved in the EphA8-Degradation Pathway with Odin” (PLoS ONE, 2012)
